Data from patent US8664210B2, “Aminooxime derivatives of 2- and/or 4-substituted androstanes and androstenes as medicaments for cardiovascular disorders” (priority 2007, dated 2014).
Where a name gives a salt, the structure may show the parent alone. Read-outs that look alike come from different tables or passages of the source.

What was measured:
[1] = molecular target: Dog Kidney Na+, K+-ATPase (Canis lupus familiaris, UniProt P50997); experiment: Dog kidney Na+,K+-ATPase inhibition (hydrolysis of 32P-ATP); type: biochemical
anesthetized guinea-pig = experiment: inotropic effect and lethal dose in anesthetized guinea-pig (infusion over 90 minutes); type: in vivo; conditions: for Lethal dose/ED80: calculated in the died animals
Description: The inotropic activity is shown as maximum increase in contractile force (Emax measured as +dP/dTmax), dose inducing maximum positive inotropic effect (EDmax), inotropic potency (ED80, dose increasing +dP/dTmax by 80%); the toxicity as the ratio between lethal dose and inotropic potency (calculated in the died animals). All animals, previously anesthetized, were administered the drug through infusion over a 90 minute period.

Na+,K+-ATPase = Na+,K+-ATPase (Canis lupus familiaris, UniProt P50997); conditions: relative to compound 22b; cited from earlier work
[2] = anesthetized guinea-pig, infusion over 90 min
[3] = dog kidney enzyme, read-out: Na+, K+-ATPase Inhibition IC50

CC1(C)/C(=N/OCCN)CC[C@@]2(C)C1CC[C@H]1[C@@H]3CC[C@H](O)[C@@]3(C)CC[C@@H]12 (stereo partly drawn) [I-ag, (E)-3-(2-Aminoethoxyimino)-4,4-dimethylandrostan-17β-ol fumarate]
IC50 [1]: 3.9 µM

C[C@@H]1/C(=N/OCCN)CC[C@@]2(C)C1C(=O)C[C@@H]1[C@@H]2CC[C@]2(C)C(=O)CC[C@@H]12.Cl (stereo partly drawn) [Compd. 22d, (E)-3-(2-aminoethoxyimino)-4α-methylandrostan-6,17-dione hydrochloride]
IC50 [1]: 6 µM | Dead/treated (anesthetized guinea-pig; [2]): 0/3 | ED80 (inotropic potency, dose increasing +dP/dTmax by 80%) (anesthetized guinea-pig; [2]): 23.0 µmol/kg | EDmax (dose inducing maximum positive inotropic effect) (anesthetized guinea-pig; [2]): 149 µmol/kg | Emax % increase in +dP/dTmax (maximum increase in contractile force) (anesthetized guinea-pig; [2]): 190% | Maximum dose infused (anesthetized guinea-pig; [2]): 250.3 µmol/kg | Notes (toxic signs during infusion) (anesthetized guinea-pig; anesthetized guinea-pig, infusion over 90 min, hydrochloride): tremors and contractions appeared during the infusion | times less active than des-methyl compound 22b (Na+,K+-ATPase): 30

CC1(C)/C(=N/O[C@@H]2CCNC2)CC[C@@]2(C)C1CC[C@H]1[C@@H]3CC[C@H](O)[C@@]3(C)CC[C@@H]12 (stereo partly drawn) [I-ak, (E)-3-[3-(R)-Pyrrolidinyl]oxyimino-4,4-dimethylandrostan-17β-ol fumarate]
IC50 [1]: 2 µM

C[C@]12CC[C@H]3[C@@H](CC=C4C5(CC5)/C(=N/O[C@@H]5CCNC5)CC[C@@]43C)[C@@H]1CC[C@@H]2O [I-bc, (E)-3-[3-(R)-Pyrrolidinyl]oxyimino-4-spirocyclopropane androst-5-en-17β-ol fumarate]
IC50 [1, 3]: 1.8 µM

C[C@]12CC[C@H]3[C@@H](CCC4C/C(=N\O[C@@H]5CCNC5)[C@H](F)C[C@@]43C)[C@@H]1CC[C@@H]2O (stereo partly drawn) [I-bg, (E)-3-[3-(R)-Pyrrolidinyl]oxyimino-2α-fluoroandrostan-17β-ol fumarate]
IC50 [1]: 0.84 µM

CC1(C)/C(=N/O[C@H]2CCNC2)CC[C@@]2(C)C1CC[C@H]1[C@@H]3CC[C@H](O)[C@@]3(C)CC[C@@H]12 (stereo partly drawn) [I-al, (E)-3-[3-(S)-Pyrrolidinyl]oxyimino-4,4-dimethylandrostan-17β-ol fumarate]
IC50 [1]: 2.6 µM

C[C@]12CC/C(=N\O[C@@H]3CCNC3)[C@@H](O)C1CC[C@@H]1[C@@H]2CC[C@]2(C)C(=O)CC[C@@H]12 (stereo partly drawn) [I-bn, (E)-3-[3-(R)-Pyrrolidinyl]oxyimino-4α-hydroxyandrostan-17-one fumarate]
IC50 [1]: 2.7 µM

CC(C)C1=C2CC[C@H]3[C@@H]4CC[C@H](O)[C@@]4(C)CC[C@@H]3[C@@]2(C)CC/C1=N\O[C@@H]1CCNC1 [I-bv, fumarate]
IC50 [1, 3]: 3.9 µM

CC12CCC3C(C(O)CC4C5(CCCC5)C(=NOC5CCNC5)CCC34C)C1CCC2O [I-bs, (E)-3-[(3-(R)-Pyrrolidinyl)oxyimino]-4-spirocyclopentaneandrostan-7α,17β-diol fumarate]
IC50 [1, 3]: 1.1 µM

CC12CCC3C(CCC4C5(CCCC5)C(=NOC5CCNC5)CCC34C)C1CCC2O [I-bq, (E)-3-[(3-(R)-Pyrrolidinyl)oxyimino]-4-spirocyclopentaneandrostan-17β-ol fumarate]
IC50 [1, 3]: 3.1 µM

CC1(C)/C(=N/OCCN)CC[C@@]2(C)C1CC[C@@H]1[C@@H]2CC[C@]2(C)C(=O)CC[C@@H]12 (stereo partly shown) [I-am, (E)-3-(2-Aminoethoxyimino)-4,4-dimethylandrostan-17-one fumarate]
IC50 [1]: 1.7 µM

CNCCCON=C1CCC2(C)C3CCC4(C)C(O)CCC4C3CCC2C1(C)C (stereo not drawn) [I-aj, (E)-3-(3-N-Methylaminopropoxyimino)-4,4-dimethylandrostan-17β-ol fumarate]
IC50 [1]: 1.4 µM

C[C@]12CC[C@H]3[C@@H](CCC4C/C(=N\OCCN)[C@H](F)C[C@@]43C)[C@@H]1CC[C@@H]2O (stereo partly drawn) [I-bf, (E)-3-(2-Aminoethoxyimino)-2α-fluoroandrostan-17β-ol fumarate]
IC50 [1]: 2.4 µM

CO/N=C1\C[C@H]2[C@@H]3CC[C@H](O)[C@@]3(C)CC[C@@H]2[C@@]2(C)C[C@@H](F)/C(=N/O[C@@H]3CCNC3)CC12 (stereo partly drawn) [I-bk, (E)-3-[3-(R)-Pyrrolidinyl]oxyimino-2α-fluoro-6-(E)-methoxyiminoandrostan-17β-ol fumarate]
IC50 [1, 3]: 1.9 µM

C[C@]12CC/C(=N\O[C@@H]3CCNC3)[C@@H](F)C1CC[C@@H]1[C@@H]2CC[C@]2(C)C(=O)CC[C@@H]12 (stereo partly drawn) [I-bl, (E)-3-[3-(R)-Pyrrolidinyl]oxyimino-4α-fluoroandrostan-17-one fumarate]
IC50 [1]: 0.55 µM

C[C@]12C[C@@H](F)/C(=N/O[C@@H]3CCNC3)CC1CC[C@@H]1[C@@H]2CC[C@]2(C)C(=O)CC[C@@H]12.Cl (stereo partly drawn) [I-bh, (E)-3-[3-(R)-Pyrrolidinyl]oxyimino-2α-fluoroandrostan-17-one hydrochloride]
IC50 [1]: 1.1 µM | Dead/treated (anesthetized guinea-pig; [2]): 2/2 | ED80 (inotropic potency, dose increasing +dP/dTmax by 80%) (anesthetized guinea-pig; [2]): 7.00 µmol/kg | EDmax (dose inducing maximum positive inotropic effect) (anesthetized guinea-pig; [2]): 14.0 µmol/kg | Emax % increase in +dP/dTmax (maximum increase in contractile force) (anesthetized guinea-pig; [2]): 210% | Maximum dose infused (anesthetized guinea-pig; [2]): 100.8 µmol/kg | Lethal dose/ED80 (anesthetized guinea-pig): 7.5

C[C@]12CC[C@H]3[C@@H](CC(=O)C4C/C(=N\O[C@@H]5CCNC5)[C@H](F)C[C@@]43C)[C@@H]1CC[C@@H]2O (stereo partly drawn) [I-bi, (E)-3-[3-(R)-Pyrrolidinyl]oxyimino-2α-fluoro-17β-hydroxyandrostan-6-one fumarate]
IC50 [1]: 1.3 µM

C[C@]12CC[C@H]3[C@@H](CC=C4C5(CC5)/C(=N/OCCN)CC[C@@]43C)[C@@H]1CC[C@@H]2O [I-bb, (E)-3-(2-Aminoethoxyimino)-4-(spirocyclopropane)-5-androsten-17β-ol fumarate]
IC50 [1, 3]: 1.5 µM

CC[C@@H]1/C(=N/O[C@@H]2CCNC2)CC[C@@]2(C)C1CC[C@H]1[C@@H]3CC[C@H](O)[C@@]3(C)CC[C@@H]12 (stereo partly drawn) [I-bw, (E)-3-[(3-(R)-Pyrrolidinyl)oxyimino]-4α-ethylandrostan-17β-ol fumarate]
IC50 [1]: 1.8 µM

CC1(C)/C(=N/OCCN)CC[C@@]2(C)C1C(=O)C[C@@H]1[C@@H]2CC[C@]2(C)C(=O)CC[C@@H]12 (stereo partly shown) [I-at, (E)-3-(2-Aminoethoxyimino)-4,4-dimethylandrostan-6,17-dione fumarate]
IC50 [1]: 1.7 µM

C[C@]12CC/C(=N\O[C@@H]3CCNC3)C3(CC3)C1=CC[C@@H]1[C@@H]2CC[C@]2(C)C(=O)CC[C@@H]12 [I-bo, (E)-3-[(3-(R)-Pyrrolidinyl)oxyimino]-4-spirocyclopropane-5-androsten-17-one fumarate]
IC50 [1, 3]: 0.69 µM

CC1(C)/C(=N/O[C@@H]2CCNC2)CC[C@]2(C)[C@H]3CC[C@]4(C)[C@@H](O)CC[C@H]4[C@@H]3CC[C@@]12O [I-by, (E)-3-[3-(R)-Pyrrolidinyl]oxyimino-4,4-dimethylandrostan-5α,17β-diol hydrochloride]
IC50 [1]: 2.2 µM

CC1(C)/C(=N/O[C@@H]2CCNC2)CC[C@@]2(C)C1CC[C@@H]1[C@@H]2CC[C@]2(C)C(=O)CC[C@@H]12 (stereo partly drawn) [I-ao, (E)-3-[3-(R)-Pyrrolidinyl]oxyimino-4,4-dimethylandrostan-17-one fumarate]
IC50 [1]: 1.3 µM

CC[C@H]1/C(=N/OCCN)CC[C@@]2(C)C1C(=O)C[C@@H]1[C@@H]2CC[C@]2(C)C(=O)CC[C@@H]12 (stereo partly drawn) [I-bd, (E)-3-(2-Aminoethoxyimino)-4β-ethylandrostan-6,17-dione hydrochloride]
IC50 [1]: 0.13 µM

CC[C@H]1/C(=N/O[C@@H]2CCNC2)CC[C@@]2(C)C1[C@@H](O)C[C@@H]1[C@@H]2CC[C@]2(C)C(=O)CC[C@@H]12 (stereo partly drawn) [I-bx, (E)-3-[3-(R)-Pyrrolidinyl]oxyimino-4β-ethyl-6α-hydroxyandrostan-17-one hydrochloride]
IC50 [1]: 0.065 µM

CC1(C)/C(=N/O[C@@H]2CCNC2)CC[C@]2(C)[C@H]3CC[C@]4(C)C(=O)CC[C@H]4[C@@H]3CC(=O)[C@@]12O [I-au, (E)-3-[3-(R)-Pyrrolidinyl]oxyimino-4,4-dimethyl-5α-hydroxyandrostan-6,17-dione fumarate]
IC50 [1]: 2.2 µM

CC1(C)/C(=N/OCCCN)CC[C@@]2(C)C1CC[C@@H]1[C@@H]2CC[C@]2(C)C(=O)CC[C@@H]12 (stereo partly shown) [I-an, (E)-3-(3-Aminopropoxyimino)-4,4-dimethylandrostan-17-one fumarate]
IC50 [1]: 1.5 µM

CC[C@H]1/C(=N/O[C@@H]2CCNC2)CC[C@@]2(C)C1C(=O)C[C@@H]1[C@@H]2CC[C@]2(C)C(=O)CC[C@@H]12.Cl (stereo partly drawn) [I-be, (E)-3-[3-(R)-Pyrrolidinyl]oxyimino-4β-ethylandrostan-6,17-dione hydrochloride]
IC50 [1]: 0.049 µM | Dead/treated (anesthetized guinea-pig; [2]): 3/3 | ED80 (inotropic potency, dose increasing +dP/dTmax by 80%) (anesthetized guinea-pig; [2]): 1.40 µmol/kg | EDmax (dose inducing maximum positive inotropic effect) (anesthetized guinea-pig; [2]): 2.81 µmol/kg | Emax % increase in +dP/dTmax (maximum increase in contractile force) (anesthetized guinea-pig; [2]): 179% | Maximum dose infused (anesthetized guinea-pig; [2]): 12.6 µmol/kg | Lethal dose/ED80 (anesthetized guinea-pig): 7.8

CC1(C)/C(=N/OCCCN)CC[C@@]2(C)C1CC[C@H]1[C@@H]3CC[C@H](O)[C@@]3(C)CC[C@@H]12 (stereo partly drawn) [I-ai, (E)-3-(3-Aminopropoxyimino)-4,4-dimethylandrostan-17β-ol fumarate]
IC50 [1]: 1.9 µM

C[C@H]1O[C@@H](O[C@H]2[C@@H](O)C[C@H](O[C@H]3[C@@H](O)C[C@H](O[C@H]4CC[C@@]5(C)[C@H](CC[C@@H]6[C@@H]5C[C@@H](O)[C@]5(C)[C@@H](C7=CC(=O)OC7)CC[C@]65O)C4)O[C@@H]3C)O[C@@H]2C)C[C@H](O)[C@@H]1O [Digoxin, digoxin]
Dead/treated (anesthetized guinea-pig; [2]): 10/10 | ED80 (inotropic potency, dose increasing +dP/dTmax by 80%) (anesthetized guinea-pig; [2]): 0.29 µmol/kg | EDmax (dose inducing maximum positive inotropic effect) (anesthetized guinea-pig; [2]): 0.65 µmol/kg | Emax % increase in +dP/dTmax (maximum increase in contractile force) (anesthetized guinea-pig; [2]): 158% | Maximum dose infused (anesthetized guinea-pig; [2]): 1.16 µmol/kg | Lethal dose/ED80 (anesthetized guinea-pig): 4.0

CC1=C2CC[C@H]3[C@@H]4CC[C@H](O)[C@@]4(C)CC[C@@H]3[C@@]2(C)CC/C1=N\OCCN [I-aa, (E)-3-(2-Aminoethoxyimino)-4-methylandrost-4-en-17β-ol hydrochloride]
IC50 [1]: 4.9 µM
